Experimental data taken from patent US20220324835A1 (Nurix Therapeutics, Inc., priority 2018, published 2022).
Counter-ions that a name gives are not always drawn.

Key:
Cbl-b = Cbl-b (Homo sapiens, UniProt Q13191); assay: Cbl-b inhibition assay (Cbl-b activity assay, FRET, Biological Example 1; 100 mM NaCl, 60 nM Src kinase); assay type: biochemical; settings: upper bound stated in text lists; read-out: IC50 values in the Cbl-b inhibition assay of Biological Example 1
Outline: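 Steps: Src kinase phosphorylates N-terminal biotinylated Avi-tagged Cbl-b; phosphorylated Cbl-b binds Bodipy-fluorescein ubiquitin-loaded UbcH5B; streptavidin-terbium on Cbl-b sits close to the fluorescein label, producing FRET. Inhibitors block UbcH5B-Ub binding.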

T-cell [1] = assay: IL-2 secretion from T-cells co-stimulated with anti-CD3 and anti-CD28 antibody (Biological Example 2); assay type: cell-based, human; settings: Homo sapiens, T-cell, fold change over baseline, primary human total T-cells, read-out: IL-2 secretion Anti-CD3/Anti-CD28 stimulation; for fold induction at 0.3 µM: 0.3 μM Cbl-b inhibitor; for fold induction at 1 µM: 1 μM Cbl-b inhibitor; for fold induction at 4 µM: 4 μM Cbl-b inhibitor
Outline: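 No assay protocol given; T-cells stimulated with anti-CD3 alone or anti-CD3 plus anti-CD28, with or without Cbl-b inhibitor. Activation read as IL-2 secretion or CD25 surface staining, expressed as fold over baseline from uninhibited cells […].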

T-cell [2] = assay: IL-2 secretion from T-cells stimulated with anti-CD3 antibody alone (Biological Example 2); assay type: cell-based, human; settings: T-cell, fold change over baseline, primary human total T-cells, read-out: IL-2 secretion Anti-CD3 stimulation; for fold induction at 1 µM: 1 μM Cbl-b inhibitor; for fold induction at 8 µM: 8 μM Cbl-b inhibitor
T-cell [3] = assay: CD25 cell surface staining on T-cells stimulated with anti-CD3 antibody alone (Biological Example 2); assay type: cell-based, human; settings: T-cell, fold change over baseline, primary human total T-cells, read-out: CD25 staining Anti-CD3 stimulation; for fold induction at 1 µM: 1 μM Cbl-b inhibitor; for fold induction at 8 µM: 8 μM Cbl-b inhibitor

Chain of Cbl-b (Q13191 36-427): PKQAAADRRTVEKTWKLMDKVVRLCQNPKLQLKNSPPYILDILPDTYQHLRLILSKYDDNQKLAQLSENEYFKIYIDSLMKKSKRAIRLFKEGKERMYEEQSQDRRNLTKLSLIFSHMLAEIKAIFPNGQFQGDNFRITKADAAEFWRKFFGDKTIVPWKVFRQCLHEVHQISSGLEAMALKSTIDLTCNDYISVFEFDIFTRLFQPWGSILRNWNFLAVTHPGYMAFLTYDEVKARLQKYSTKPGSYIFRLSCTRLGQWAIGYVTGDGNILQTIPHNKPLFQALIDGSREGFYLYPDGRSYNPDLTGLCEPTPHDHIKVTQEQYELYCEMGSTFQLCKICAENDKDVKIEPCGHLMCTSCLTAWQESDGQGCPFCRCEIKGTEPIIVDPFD

Row | Compound | IC50 (Cbl-b) | fold induction at 0.3 µM (T-cell [1]) | fold induction at 1 µM (T-cell [1]) | fold induction at 4 µM (T-cell [1]) | fold induction at 1 µM (T-cell [2]) | fold induction at 8 µM (T-cell [2]) | fold induction at 1 µM (T-cell [3]) | fold induction at 8 µM (T-cell [3])
1 | C[C@H](Cc1nncn1C)c1cccc(N2Cc3c(cc(C(=O)N4CC(O)C4)cc3C(F)(F)F)C2=O)c1 [Compound 276, (R)-6-(3-hydroxyazetidine-1-carbonyl)-2-(3-(1-(4-methyl-4H-1,2,4-triazol-3-yl)propan-2-yl)phenyl)-4-(trifluoromethyl)isoindolin-1-one] | ≤ 100 nM | 1.01 to 2.5 | 2.51 to 5 | > 7.5 | 0.051 to 0.1 | 0.151 to 0.2 | 0.801 to 1 | > 1
2 | C[C@H](Cc1nncn1C)c1cccc(N2Cc3c(cc(C(=O)N4CC[C@H](O)C4)cc3C3CC3)C2=O)c1 [Compound 277, 4-cyclopropyl-6-((S)-3-hydroxypyrrolidine-1-carbonyl)-2-(3-((R)-1-(4-methyl-4H-1,2,4-triazol-3-yl)propan-2-yl)phenyl)isoindolin-1-one] | ≤ 100 nM | 1.01 to 2.5 | 2.51 to 5 | 2.51 to 5 | 0.051 to 0.1 | 0.101 to 0.15 | 0.801 to 1 | > 1
3 | Cn1cnnc1CC1(c2cccc(N3Cc4c(cccc4C(F)(F)F)C3=O)c2)CC1 [Compound 299, 2-(3-(1-((4-methyl-4H-1,2,4-triazol-3-yl)methyl)cyclopropyl)phenyl)-4-(trifluoromethyl)isoindolin-1-one] | ≤ 100 nM | 2.51 to 5 | 2.51 to 5 | 5 to 7.5 | 0.051 to 0.1 | > 0.201 | > 1 | > 1
4 | Cn1cnnc1CC(C)(C)c1cccc(N2Cc3c(cccc3C(F)(F)F)C2=O)c1 [Compound 300, 2-(3-(2-methyl-1-(4-methyl-4H-1,2,4-triazol-3-yl)propan-2-yl)phenyl)-4-(trifluoromethyl)isoindolin-1-one] | ≤ 100 nM | 1.01 to 2.5 | 2.51 to 5 | > 7.5 | > 0.201 | > 0.201 | 0.801 to 1 | > 1
5 | Cn1cnnc1CC1(c2cccc(N3Cc4c(cccc4C(F)(F)F)C3=O)c2)COC1 [Compound 301, 2-[3-[3-[(4-methyl-1,2,4-triazol-3-yl)methyl]oxetan-3-yl]phenyl]-4-(trifluoromethyl)isoindolin-1-one] | ≤ 100 nM | 1.01 to 2.5 | 2.51 to 5 | > 7.5 | 0.051 to 0.1 | 0.101 to 0.15 | 0.801 to 1 | > 1
6 | C[C@H](Sc1nncn1C)c1cccc(NC(=O)c2cc3cc(OCC(=O)NCCN)ccc3cn2)c1 [Compound 311, 6-[2-(2-aminoethylamino)-2-oxo-ethoxy]-N-[3-[(1S)-1-[(4-methyl-1,2,4-triazol-3-yl)sulfanyl]ethyl]phenyl]isoquinoline-3-carboxamide hydrochloride] | ≤ 300 nM | < 1 | < 1 | 1.01 to 2.5 | < 0.05 | < 0.05 | 0.601 to 0.8 | 0.601 to 0.8
7 | Cc1cnnn1C[C@@H](C)c1cccc(NC(=O)c2cccc(C(F)(F)F)n2)c1 [Compound 312a, (S)-N-(3-(1-(5-methyl-1H-1,2,3-triazol-1-yl)propan-2-yl)phenyl)-6-(trifluoromethyl)picolinamide] | ≤ 300 nM | 1.01 to 2.5 | 1.01 to 2.5 | 2.51 to 5 | 0.051 to 0.1 | 0.151 to 0.2 | 0.601 to 0.8 | 0.801 to 1
8 | C[C@H](Cc1nncn1C)c1cccc(NC(=O)c2n[nH]c3c2CCC3)c1 [Compound 313, (R)-N-(3-(1-(4-Methyl-4H-1,2,4-triazol-3-yl)propan-2-yl)phenyl)-1,4,5,6-tetrahydrocyclopenta[c]pyrazole-3-carboxamide] | ≤ 300 nM | 1.01 to 2.5 | 1.01 to 2.5 | 2.51 to 5 | 0.101 to 0.15 | 0.151 to 0.2 | 0.601 to 0.8 | 0.801 to 1
9 | C[C@H](Cc1nncn1C)c1cccc(NC(=O)c2nc3c(C4CC4)cccc3[nH]2)c1 [Compound 319, 4-cyclopropyl-N-[3-[(1R)-1-methyl-2-(4-methyl-1,2,4-triazol-3-yl)ethyl]phenyl]-1H-benzimidazole-2-carboxamide] | ≤ 300 nM | 1.01 to 2.5 | 1.01 to 2.5 | 2.51 to 5 | 0.051 to 0.1 | > 0.201 | 0.601 to 0.8 | 0.801 to 1
10 | C[C@H](Cc1nncn1C)c1cccc(NC(=O)c2cc(C(C)(C)O)cc(C(F)(F)F)n2)c1 [Compound 320, 4-(2-hydroxypropan-2-yl)-N-[3-[(2R)-1-(4-methyl-4H-1,2,4-triazol-3-yl)propan-2-yl]phenyl]-6-(trifluoromethyl)pyridine-2-carboxamide] | ≤ 300 nM | 1.01 to 2.5 | 2.51 to 5 | 5 to 7.5 | 0.101 to 0.15 | > 0.201 | 0.801 to 1 | > 1
11 | C[C@H](Cc1nncn1C)c1cccc(NC(=O)c2cccc(C(C)(C)C)n2)c1 [Compound 321, (R)-6-(Tert-butyl)-N-(3-(1-(4-methyl-4H-1,2,4-triazol-3-yl)propan-2-yl)phenyl)picolinamide] | ≤ 100 nM | 1.01 to 2.5 | 2.51 to 5 | 2.51 to 5 | 0.051 to 0.1 | > 0.201 | 0.801 to 1 | > 1
12 | CC1CCc2c1n[nH]c2C(=O)Nc1cccc([C@H](C)Cc2nncn2C)c1 (stereo partly drawn) [Compound 323, 6-Methyl-N-(3-((R)-1-(4-methyl-4H-1,2,4-triazol-3-yl)propan-2-yl)phenyl)-2,4,5,6-tetrahydrocyclopenta[c]pyrazole-3-carboxamide] | ≤ 300 nM | 1.01 to 2.5 | 2.51 to 5 | 5 to 7.5 | 0.101 to 0.15 | > 0.201 | 0.601 to 0.8 | > 1
13 | Cc1cc(C(=O)Nc2cccc([C@@H](C)Cc3nncn3C)c2)nc(C2CC2)n1 [Compound 325, (S)-2-Cyclopropyl-6-methyl-N-(3-(1-(4-methyl-4H-1,2,4-triazol-3-yl)propan-2-yl)phenyl)pyrimidine-4-carboxamide] | ≤ 300 nM | 1.01 to 2.5 | 1.01 to 2.5 | 2.51 to 5 | 0.051 to 0.1 | 0.101 to 0.15 | 0.801 to 1 | > 1
14 | Cc1cc(C(=O)Nc2cccc([C@H](C)Cc3nocc3C)c2)nc(C2CC2)n1 [Compound 330, (R)-2-cyclopropyl-6-methyl-N-(3-(1-(4-methylisoxazol-3-yl)propan-2-yl)phenyl)pyrimidine-4-carboxamide] | ≤ 100 nM | 1.01 to 2.5 | 2.51 to 5 | 5 to 7.5 | 0.051 to 0.1 | > 0.201 | 0.801 to 1 | > 1
15 | Cn1cnnc1CC1(c2cccc(NC(=O)c3nc4c(C(F)(F)F)cccc4[nH]3)c2)COC1 [Compound 335, N-(3-{3-[(4-methyl-1,2,4-triazol-3-yl)methyl]oxetan-3-yl}phenyl)-4-(trifluoromethyl)-1H-1,3-benzodiazole-2-carboxamide] | ≤ 100 nM | 2.51 to 5 | 5 to 7.5 | > 7.5 | 0.101 to 0.15 | > 0.201 | 0.801 to 1 | > 1
16 | Cc1cc(C(=O)Nc2cccc(C3(Cc4nncn4C)COC3)c2)nc(C2CC2)n1 [Compound 336, 2-cyclopropyl-6-methyl-N-(3-(3-((4-methyl-4H-1,2,4-triazol-3-yl)methyl)oxetan-3-yl)phenyl)pyrimidine-4-carboxamide] | ≤ 100 nM | 5 to 7.5 | > 7.5 | > 7.5 | > 0.201 | > 0.201 | > 1 | > 1
